The results in this text go back to ChEMBL document CHEMBL5532736, “Novel Approaches for Upregulation of Tumor Suppressor Proteins: Pioneering Strategies and Integrative Potentials” (ACS Med Chem Lett, 2024).

Where only a bound is given, the exact number is not on record here.

Assay [1] in a line: Cytotoxicity against human EU-1 cells assessed as inhibition of cell viability incubated for 24 to 72 hrs by CCK8 assay. Type of assay: functional, cell-based. (In general: Tetrazolium assays rely on reduction of a dye to a coloured formazan, in cell work by metabolically active cells.)
Assay [2] addresses E3 ubiquitin-protein ligase Mdm2 (Homo sapiens) (UniProt Q00987). Put plainly: Induction of MDM2 degradation in human EU-1 cells assessed as increase in p53 level at 0.8 uM by Western blot analysis. Type of assay: cell-based. The settings on record: time <= 24.0 hrs, TDE = time-dependent effect. For orientation: Immunoblotting shows a protein as a band on a membrane.
Assay [3] has the same target. Description: Induction of MDM2 degradation in human EU-1 cells at 0.8 uM by Western blot analysis. Type of assay: cell-based. The settings on record: time <= 24.0 hrs, TDE = time-dependent effect.
For assay [4] the target is unchanged. Description: Induction of MDM2 degradation in human EU-1 cells assessed as increase in p53 level incubated for 6 hrs by Western blot analysis. The class given is cell-based. The settings on record: dose <= 2.0 µM.
For assay [5] the target is unchanged. Put plainly: Induction of MDM2 degradation in human EU-1 cells incubated for 6 hrs by Western blot analysis. Type of assay: cell-based. The settings on record: dose <= 2.0 µM.

E3 ubiquitin-protein ligase Mdm2 (Homo sapiens), sequence (Q00987 whole entry, looked up): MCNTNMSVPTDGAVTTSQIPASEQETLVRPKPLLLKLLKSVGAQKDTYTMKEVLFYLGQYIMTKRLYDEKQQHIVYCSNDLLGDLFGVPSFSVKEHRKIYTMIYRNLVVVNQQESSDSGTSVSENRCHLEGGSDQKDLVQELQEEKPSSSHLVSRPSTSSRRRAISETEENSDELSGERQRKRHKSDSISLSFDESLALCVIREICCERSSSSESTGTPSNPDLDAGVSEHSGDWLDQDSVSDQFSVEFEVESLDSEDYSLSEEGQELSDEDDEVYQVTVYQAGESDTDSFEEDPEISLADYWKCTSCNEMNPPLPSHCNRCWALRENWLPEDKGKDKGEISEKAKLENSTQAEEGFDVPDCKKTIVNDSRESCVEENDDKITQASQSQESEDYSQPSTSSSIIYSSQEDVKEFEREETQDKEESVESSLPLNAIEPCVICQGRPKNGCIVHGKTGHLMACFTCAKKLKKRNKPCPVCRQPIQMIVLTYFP

What is called IC50 is the concentration at which inhibition is half-maximal. As to `CC(=O)CCCCOc1cccc2c1C(=O)c1c(OCCCCC(C)=O)cc(NC(=O)CCl)cc1C2=O`, in assay [1], the IC50 is 790 nM.

Consider `CC(=O)CCCOc1cc(NC(=O)CCl)cc2c1C(=O)c1c(O)cccc1C2=O`, for which the IC50 in assay [1] was 840 nM.

Turning to `C=CC(=O)Nc1cc(OCCCC(C)=O)c2c(c1)C(=O)c1cccc(OCCCC(C)=O)c1C2=O`, the IC50 in assay [1] was 6210 nM.

On to `C=CS(=O)(=O)Nc1cc(OCCCC(C)=O)c2c(c1)C(=O)c1cccc(OCCCC(C)=O)c1C2=O`, for which the IC50 in assay [1] stood at 3450 nM.

`CC(=O)CCCOc1cccc2c1C(=O)c1c(OCCCC(C)=O)cc(NC(C)=O)cc1C2=O`: the IC50 in assay [1] is greater than 100000 nM.

Turning to `CC(=O)CCOc1cccc2c1C(=O)c1c(OCCC(C)=O)cc(NC(=O)CCl)cc1C2=O`, the IC50 in assay [1] turned out to be 450 nM.

With `O=C(CCl)Nc1cc(OCCO)c2c(c1)C(=O)c1cccc(OCCO)c1C2=O`, the IC50 in assay [1] was 740 nM.

With `C#CC(=O)Nc1cc(OCCCC(C)=O)c2c(c1)C(=O)c1cccc(OCCCC(C)=O)c1C2=O`, in assay [1], the IC50 was 190 nM.

For the compound `CC(=O)CCCOc1cccc2c1C(=O)c1c(OCCCC(C)=O)cc(NC(=O)CCl)cc1C2=O`, the Activity result in assay [2] was “Tde”; in assay [3], “Tde”; in assay [4], “Dose-Dependent Effect”; in assay [5] it was “Dose-Dependent Effect”. The IC50 in assay [1] was 430 nM.
